This assay addresses T1, human full-length recombinant PKC βII (Homo sapiens, UniProt P05771).
T1 construct: Active human full-length recombinant PKC βII; purchased Invitrogen GmbH, Darmstadt, Germany
Kind of assay: Determination of PKC βII inhibition (Caliper mobility-shift kinase assay, Fluorescein-RFARKGSLRQKNV peptide substrate). The format is biochemical. To be noted: example compounds at a final concentration of 1.14 μM (±0.15 μM). An outline of the steps: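 Full-length PKC βII (30 ng/ml in pre-dilution) with PS/DAG/Ca2+ activators, pH 7.4; fluorescein peptide and ATP at 3 μM and 120 μM before mixing. Reaction ran 60 min at 32 °C, was EDTA-stopped, and was read by mobility shift. % inhibition came from product/(substrate+product) peak heights, tested at 1.14 μM final.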

T1 sequence (P05771 1-673 isoform P05771-2): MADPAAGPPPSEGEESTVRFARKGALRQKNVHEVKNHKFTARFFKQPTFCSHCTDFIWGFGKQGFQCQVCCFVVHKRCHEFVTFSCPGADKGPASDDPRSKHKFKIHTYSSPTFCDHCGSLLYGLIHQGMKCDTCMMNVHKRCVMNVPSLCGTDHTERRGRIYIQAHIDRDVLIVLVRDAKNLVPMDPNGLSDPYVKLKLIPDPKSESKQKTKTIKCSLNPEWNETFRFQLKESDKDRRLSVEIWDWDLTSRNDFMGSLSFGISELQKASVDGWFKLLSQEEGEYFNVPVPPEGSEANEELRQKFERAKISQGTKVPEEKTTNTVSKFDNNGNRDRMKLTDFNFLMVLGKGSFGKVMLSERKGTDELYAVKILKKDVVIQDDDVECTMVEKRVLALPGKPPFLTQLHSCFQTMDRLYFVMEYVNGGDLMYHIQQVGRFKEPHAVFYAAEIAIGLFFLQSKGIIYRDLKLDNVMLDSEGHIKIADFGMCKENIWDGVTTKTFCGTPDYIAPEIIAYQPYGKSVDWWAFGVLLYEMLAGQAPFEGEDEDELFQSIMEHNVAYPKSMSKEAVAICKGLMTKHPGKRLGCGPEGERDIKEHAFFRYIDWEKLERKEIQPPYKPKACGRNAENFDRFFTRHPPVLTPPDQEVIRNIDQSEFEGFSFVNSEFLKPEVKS

For the compound `Cc1n[nH]c2nc(-c3ccc(O)c(F)c3)cc(C(=O)NCC(C)(C)N3CCN(C)CC3)c12` [Example 362, 6-(3-Fluoro-4-hydroxy-phenyl)-3-methyl-1H-pyrazolo[3,4-b]pyridine-4-carboxylic acid [2-methyl-2-(4-methyl-piperazin-1-yl)-propyl]-amide], the inhibition at 1.14 µM worked out at 80%. Turning to `Cc1n[nH]c2nc(-c3ccc(O)c(F)c3)cc(C(=O)NCC(C)(C)CN)c12` [Example 363, 6-(3-Fluoro-4-hydroxy-phenyl)-3-methyl-1H-pyrazolo[3,4-b]pyridine-4-carboxylic acid (3-amino-2,2-dimethyl-propyl)-amide], the inhibition at 1.14 µM was 72%. Under `Cc1n[nH]c2nc(-c3ccc(O)c(F)c3)cc(C(=O)NC3CC(C)(C)N(C)C(C)(C)C3)c12` [Example 364, 6-(3-Fluoro-4-hydroxy-phenyl)-3-methyl-1H-pyrazolo[3,4-b]pyridine-4-carboxylic acid (1,2,2,6,6-pentamethyl-piperidin-4-yl)-amide] stands 38%; under `Cc1n[nH]c2nc(-c3ccc(O)c(F)c3)cc(C(=O)N3CCCN(C)CC3)c12` [Example 365, [6-(3-Fluoro-4-hydroxy-phenyl)-3-methyl-1H-pyrazolo[3,4-b]pyridin-4-yl]-(4-methyl-[1,4]diazepan-1-yl)-methanone], 41%; under `CCN1CCCN(C(=O)c2cc(-c3ccc(O)c(F)c3)nc3[nH]nc(C)c23)CC1` [Example 366, (4-Ethyl-[1,4]diazepan-1-yl)-[6-(3-fluoro-4-hydroxy-phenyl)-3-methyl-1H-pyrazolo[3,4-b]pyridin-4-yl]-methanone], 47%. The value for `Cc1n[nH]c2nc(-c3ccc(O)c(F)c3)cc(C(=O)NCC3CCCCN3)c12` (stereo not drawn) [Example 367, 6-(3-Fluoro-4-hydroxy-phenyl)-3-methyl-1H-pyrazolo[3,4-b]pyridine-4-carboxylic acid (piperidin-2-ylmethyl)-amide] was 36%; that for `Cc1n[nH]c2nc(-c3ccc(O)c(F)c3)cc(C(=O)N3CC(=O)NC(C(C)C)C3)c12` (stereo not drawn) [Example 368, 4-[6-(3-Fluoro-4-hydroxy-phenyl)-3-methyl-1H-pyrazolo[3,4-b]pyridine-4-carbonyl]-6-isopropyl-piperazin-2-one] was 58%; that for `Cc1n[nH]c2nc(-c3ccc(O)c(F)c3)cc(C(=O)N3CC4CCCN4CC3c3ccccc3)c12` (stereo not drawn) [Example 369, [6-(3-Fluoro-4-hydroxy-phenyl)-3-methyl-1H-pyrazolo[3,4-b]pyridin-4-yl]-(3-phenyl-hexahydro-pyrrolo[1,2-a]pyrazin-2-yl)-methanone] was 34%. On to `Cc1n[nH]c2nc(-c3ccc(O)c(F)c3)cc(C(=O)NCC(C)(c3ccccn3)N3CCCC3)c12` (stereo not drawn) [Example 370, 6-(3-Fluoro-4-hydroxy-phenyl)-3-methyl-1H-pyrazolo[3,4-b]pyridine-4-carboxylic acid (2-pyridin-2-yl-2-pyrrolidin-1-yl-propyl)-amide], for which the inhibition at 1.14 µM was determined as 48%. On to `Cc1n[nH]c2nc(-c3ccc(O)c(F)c3)cc(C(=O)NCC(C)(CN3CCCC3)c3ccccn3)c12` (stereo not drawn) [Example 371, 6-(3-Fluoro-4-hydroxy-phenyl)-3-methyl-1H-pyrazolo[3,4-b]pyridine-4-carboxylic acid (2-methyl-2-pyridin-2-yl-3-pyrrolidin-1-yl-propyl)-amide], for which the inhibition at 1.14 µM was determined as 31%. The value for `Cc1n[nH]c2nc(-c3ccc(O)cc3)cc(C(=O)N3CCN(C)CC3c3ccccc3)c12` (stereo not drawn) [Example 372, [6-(4-Hydroxy-phenyl)-3-methyl-1H-pyrazolo[3,4-b]pyridin-4-yl]-(4-methyl-2-phenyl-piperazin-1-yl)-methanone] was 66%; that for `Cc1n[nH]c2nc(-c3ccc(O)cc3)cc(C(=O)NC3CC4(CCNCC4)c4ccccc43)c12` (stereo not drawn) [Example 373, 6-(4-Hydroxy-phenyl)-3-methyl-1H-pyrazolo[3,4-b]pyridine-4-carboxylic acid (2,3-dihydro-spiro[1H-indene-1,4′-piperidin]-3-yl)-amide] was 96%. Under `Cc1n[nH]c2nc(-c3ccc(O)cc3)cc(C(=O)N3CCNCC3c3cccnc3)c12` (stereo not drawn) [Example 374, [6-(4-Hydroxy-phenyl)-3-methyl-1H-pyrazolo[3,4-b]pyridin-4-yl]-(2-pyridin-3-yl-piperazin-1-yl)-methanone] stands 99%; under `Cc1n[nH]c2nc(-c3ccc(O)cc3)cc(C(=O)N3CCNC(Cc4ccccc4)C3)c12` (stereo not drawn) [Example 375, (3-Benzyl-piperazin-1-yl)-[6-(4-hydroxy-phenyl)-3-methyl-1H-pyrazolo[3,4-b]pyridin-4-yl]-methanone], 90%. The value for `COc1ccc(C(CNC(=O)c2cc(-c3ccc(O)cc3)nc3[nH]nc(C)c23)N(C)C)cc1` (stereo not drawn) [Example 376, 6-(4-Hydroxy-phenyl)-3-methyl-1H-pyrazolo[3,4-b]pyridine-4-carboxylic acid [2-dimethylamino-2-(4-methoxy-phenyl)-ethyl]-amide] was 64%; that for `Cc1n[nH]c2nc(-c3ccc(O)cc3)cc(C(=O)NC(CN3CCCC3)c3ccccc3)c12` (stereo not drawn) [Example 377, 6-(4-Hydroxy-phenyl)-3-methyl-1H-pyrazolo[3,4-b]pyridine-4-carboxylic acid (1-phenyl-2-pyrrolidin-1-yl-ethyl)-amide] was 69%. Turning to `Cc1n[nH]c2nc(-c3ccc(O)cc3)cc(C(=O)N3CCNCC3c3ccc(Cl)cc3)c12` (stereo not drawn) [Example 378, [2-(4-Chloro-phenyl)-piperazin-1-yl]-[6-(4-hydroxy-phenyl)-3-methyl-1H-pyrazolo[3,4-b]pyridin-4-yl]-methanone], the inhibition at 1.14 µM came to 87%.

`Cc1n[nH]c2nc(-c3ccc(O)cc3)cc(C(=O)N3CCN(C(=O)N4CCCC4)CC3)c12` [Example 379, {4-[6-(4-Hydroxy-phenyl)-3-methyl-1H-pyrazolo[3,4-b]pyridine-4-carbonyl]-piperazin-1-yl}-pyrrolidin-1-yl-methanone]: the inhibition at 1.14 µM is 86%.

With `Cc1n[nH]c2nc(-c3ccc(O)cc3)cc(C(=O)N3CCN(C(=O)c4ccoc4)CC3)c12` [Example 380, [4-(Furan-3-carbonyl)-piperazin-1-yl]-[6-(4-hydroxy-phenyl)-3-methyl-1H-pyrazolo[3,4-b]pyridin-4-yl]-methanone], the inhibition at 1.14 µM is 83%. Under `COc1ccccc1C(=O)N1CCN(C(=O)c2cc(-c3ccc(O)cc3)nc3[nH]nc(C)c23)CC1` [Example 381, [6-(4-Hydroxy-phenyl)-3-methyl-1H-pyrazolo[3,4-b]pyridin-4-yl]-[4-(2-methoxy-benzoyl)-piperazin-1-yl]-methanone] stands 37%; under `Cc1n[nH]c2nc(-c3ccc(O)cc3)cc(C(=O)NC3CCN(CCc4ccccc4)CC3)c12` [Example 382, 6-(4-Hydroxy-phenyl)-3-methyl-1H-pyrazolo[3,4-b]pyridine-4-carboxylic acid (1-phenethyl-piperidin-4-yl)-amide], 67%; under `Cc1n[nH]c2nc(-c3ccc(O)cc3)cc(C(=O)N3CCN4CCC[C@H]4C3)c12` [Example 383, (S)-Hexahydro-pyrrolo[1,2-a]pyrazin-2-yl-[6-(4-hydroxy-phenyl)-3-methyl-1H-pyrazolo[3,4-b]pyridin-4-yl]-methanone], 66%. The value for `Cc1n[nH]c2nc(-c3ccc(O)cc3)cc(C(=O)NC3CCN(Cc4ccccc4)C3)c12` (stereo not drawn) [Example 384, 6-(4-Hydroxy-phenyl)-3-methyl-1H-pyrazolo[3,4-b]pyridine-4-carboxylic acid (1-benzyl-pyrrolidin-3-yl)-amide] was 67%. With `Cc1n[nH]c2nc(-c3ccc(O)cc3)cc(C(=O)N3CCC(Nc4ccccc4)C3)c12` (stereo not drawn) [Example 385, [6-(4-Hydroxy-phenyl)-3-methyl-1H-pyrazolo[3,4-b]pyridin-4-yl]-(3-phenylamino-pyrrolidin-1-yl)-methanone], the inhibition at 1.14 µM was 24%. As to `Cc1n[nH]c2nc(-c3ccc(O)cc3)cc(C(=O)N3CC4CN(Cc5ccccc5)CC4C3)c12` (stereo not drawn) [Example 386, (5-Benzyl-hexahydro-pyrrolo[3,4-c]pyrrol-2-yl)-[6-(4-hydroxy-phenyl)-3-methyl-1H-pyrazolo[3,4-b]pyridin-4-yl]-methanone], the inhibition at 1.14 µM amounted to 51%.

Turning to `Cc1n[nH]c2nc(-c3ccc(O)cc3)cc(C(=O)N3CCCN(C(=O)c4ccncc4)CC3)c12` [Example 387, [6-(4-Hydroxy-phenyl)-3-methyl-1H-pyrazolo[3,4-b]pyridin-4-yl]-[4-(pyridine-4-carbonyl)-[1,4]diazepan-1-yl]-methanone], the inhibition at 1.14 µM came out at 39%. Under `Cc1n[nH]c2nc(-c3ccc(O)cc3)cc(C(=O)NCCN3CCC(c4ccccc4)C3)c12` (stereo not drawn) [Example 388, 6-(4-Hydroxy-phenyl)-3-methyl-1H-pyrazolo[3,4-b]pyridine-4-carboxylic acid [2-(3-phenyl-pyrrolidin-1-yl)-ethyl]-amide] stands 54%. With `Cc1n[nH]c2nc(-c3ccc(O)cc3)cc(C(=O)NCC(C)N3CCCC3)c12` (stereo not drawn) [Example 389, 6-(4-Hydroxy-phenyl)-3-methyl-1H-pyrazolo[3,4-b]pyridine-4-carboxylic acid (2-pyrrolidin-1-yl-propyl)-amide], the inhibition at 1.14 µM worked out at 65%.

Regarding `Cc1n[nH]c2nc(-c3ccc(O)cc3)cc(C(=O)NCCN3CCC(c4ccccc4)CC3)c12` [Example 390, 6-(4-Hydroxy-phenyl)-3-methyl-1H-pyrazolo[3,4-b]pyridine-4-carboxylic acid [2-(4-phenyl-piperidin-1-yl)-ethyl]-amide], the inhibition at 1.14 µM was 67%. Under `Cc1n[nH]c2nc(-c3ccc(O)cc3)cc(C(=O)NCC(c3ccccc3)N3CCCC3)c12` (stereo not drawn) [Example 391, 6-(4-Hydroxy-phenyl)-3-methyl-1H-pyrazolo[3,4-b]pyridine-4-carboxylic acid (2-phenyl-2-pyrroiidin-1-yl-ethyl)-amide] stands 84%.

One may read the inhibition as the percentage by which the read-out fell short of the control.

(Values after patent US8686150B2 (Sanofi, priority 2011, dated 2014).)
